From US20250163044A1, “COMPOUNDS” (PSYLO PTY LTD, priority 2021, published 2025)

How the values were obtained:
Assay type in all cases: cell-based
5-HT2A receptor = target: T1, 5-HT2A receptor (Homo sapiens, UniProt P28223); experiment: FLIPR Ca2+ flux functional assay, agonist activity at 5-HT2A; settings: HEK293 cells, Ca2+ flux; for EC50: read-out: 5-HT2A EC50
T1 construct: host or cells: HEK293
Experimental: (§1) Activity at 5-HT2A, 5-HT2B and 5-HT2C receptors was determined using a FLIPR Ca2+ flux assay at WuXi AppTec Co. Ltd. (Hong Kong) Discovery Biology Unit according to their standard protocols. Briefly, stably transfected cells expressing the receptor of interest (HEK293 for 5-HT2A and 5-HT2C; CHO-K1 for 5-HT2B) were grown and plated in a 384 well plate and incubated at 37° C. and 5% CO2 overnight. A 250 mM stock solution of probenecid in FLIPR calcium assay buffer (10 mL) was freshly prepared and combined with a fluorescent dye (Fluo-4 Direct) to give a final assay concentration of 2.5 mM. Reference compounds were 4-fold serially diluted and the screening compounds were 3-fold serially diluted in 100% DMSO for 10 points using Agilent Bravo, and 750 nL was added to a 384 well compound plate using Echo along with 30 μL assay buffer. The fluorescent dye was then added to the assay plate along with assay buffer to a final volume of 40 μL. The cell plate was incubated for 50 min at 37° C. and 5% CO2 and placed into the FLIPR Tetra along with the compound plate. 10 μL of references and compounds were then transferred from the compound plate into the cell plate and the fluorescent signal was read.

5-HT2B receptor = target: T2, 5-HT2B receptor (Homo sapiens, UniProt P41595); experiment: FLIPR Ca2+ flux functional assay, agonist activity at 5-HT2B; settings: CHO-K1 cells, Ca2+ flux; for EC50: read-out: 5-HT2B EC50
T2 construct: host or cells: CHO-K1
Experimental: as §1

5-HT2C receptor = target: T3, 5-HT2C receptor (Homo sapiens, UniProt P28335); experiment: FLIPR Ca2+ flux functional assay, agonist activity at 5-HT2C; settings: HEK293 cells, Ca2+ flux; for EC50: read-out: 5-HT2C EC50
T3 construct: host or cells: HEK293
T3 sequence (P28335 33-458): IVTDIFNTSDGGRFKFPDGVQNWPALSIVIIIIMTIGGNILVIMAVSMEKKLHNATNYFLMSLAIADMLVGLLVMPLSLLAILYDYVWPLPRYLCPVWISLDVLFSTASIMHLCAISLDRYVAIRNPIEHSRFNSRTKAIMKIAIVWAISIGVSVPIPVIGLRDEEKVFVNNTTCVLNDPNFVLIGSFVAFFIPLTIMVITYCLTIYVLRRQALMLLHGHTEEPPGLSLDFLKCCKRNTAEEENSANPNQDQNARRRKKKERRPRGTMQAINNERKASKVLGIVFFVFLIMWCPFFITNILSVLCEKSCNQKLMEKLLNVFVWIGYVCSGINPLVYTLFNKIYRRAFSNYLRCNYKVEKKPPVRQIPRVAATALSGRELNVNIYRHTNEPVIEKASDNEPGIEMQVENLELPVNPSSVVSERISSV
Experimental: as §1

T1 sequence (P28223 whole entry): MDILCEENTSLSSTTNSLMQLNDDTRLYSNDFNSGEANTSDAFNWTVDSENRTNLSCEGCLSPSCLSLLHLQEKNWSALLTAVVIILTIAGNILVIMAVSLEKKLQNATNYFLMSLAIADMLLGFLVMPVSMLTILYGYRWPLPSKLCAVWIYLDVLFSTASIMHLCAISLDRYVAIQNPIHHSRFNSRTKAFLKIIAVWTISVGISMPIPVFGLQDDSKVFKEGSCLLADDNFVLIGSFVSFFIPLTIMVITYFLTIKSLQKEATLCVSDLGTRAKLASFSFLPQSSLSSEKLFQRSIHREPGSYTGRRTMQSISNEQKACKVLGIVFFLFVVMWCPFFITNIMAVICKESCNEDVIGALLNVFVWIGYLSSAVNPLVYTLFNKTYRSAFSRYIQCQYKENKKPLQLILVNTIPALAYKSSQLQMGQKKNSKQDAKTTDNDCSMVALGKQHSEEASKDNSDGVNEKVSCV
T2 sequence (P41595 whole entry): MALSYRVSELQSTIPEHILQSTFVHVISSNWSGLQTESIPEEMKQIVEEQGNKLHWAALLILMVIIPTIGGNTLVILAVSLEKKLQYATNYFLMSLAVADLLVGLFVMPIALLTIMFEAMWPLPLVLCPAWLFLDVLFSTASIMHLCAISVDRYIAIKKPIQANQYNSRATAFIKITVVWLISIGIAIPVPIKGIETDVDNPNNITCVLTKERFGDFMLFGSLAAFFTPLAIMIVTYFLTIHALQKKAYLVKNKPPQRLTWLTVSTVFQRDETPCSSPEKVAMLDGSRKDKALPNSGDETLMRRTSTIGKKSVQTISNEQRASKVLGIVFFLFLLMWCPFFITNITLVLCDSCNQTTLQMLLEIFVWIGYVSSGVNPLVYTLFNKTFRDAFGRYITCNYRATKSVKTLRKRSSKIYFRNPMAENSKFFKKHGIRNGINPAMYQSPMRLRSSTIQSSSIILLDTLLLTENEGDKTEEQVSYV

SMILES | Emax (5-HT2A receptor) [%] | EC50 (5-HT2A receptor) [µM] | Emax (5-HT2B receptor) [%] | EC50 (5-HT2B receptor) [µM] | Emax (5-HT2C receptor) [%] | EC50 (5-HT2C receptor) [µM]
Cc1cnc2[nH]cc(CCN(C)C)c2c1 [Example P-22, N,N-dimethyl-2-(5-methyl-1H-pyrrolo[2,3-b]pyridin-3-yl)ethan-1-amine] | 55.5 | 0.691 | 1.91 | > 10 | 0.27 | > 10
COc1cnc2[nH]cc(CCN(C)C(C)C)c2c1 [Example P-21, N-(2-(5-methoxy-1H-pyrrolo[2,3-b]pyridin-3-yl)ethyl)-N-methylpropan-2-amine] | 79.8 | 0.109 | 4.56 | > 10 | -0.15 | > 10
CCCN(CCC)CCc1n[nH]c2ccc(OC)cc12 [Example P-49, N,N-dipropyl-2-(5-methoxy-1H-indazol-3-yl)ethan-1-amine] | – | 1.39 | – | > 10 | – | > 10
COc1cnc2[nH]cc(CCN(C(C)C)C(C)C)c2c1 [Example P-19, N-isopropyl-N-(2-(5-methoxy-1H-pyrrolo[2,3-b]pyridin-3-yl)ethyl)propan-2-amine] | 112 | 0.0729 | 13.3 | > 10 | 0.16 | > 10
CCN(C)CCc1c[nH]c2ccnc(C)c12 [Example P-40] | 0.75 | > 10 | – | – | – | –
CCCN(CCC)CCc1c[nH]c2ccc(OC)nc12 [Example P-11, 2-(5-methoxy-1H-pyrrolo[3,2-b]pyridin-3-yl)-N,N-dipropylethan-1-amine] | 99.1 | 0.00417 | 92.1 | 0.0522 | 96.3 | 0.0911
CN(C)CCc1n[nH]c2cccc(O)c12 [Example P-6] | – | – | – | > 10 | – | > 10
Cc1ccnc2[nH]cc(CCN(C)C)c12 [Example P-30, N,N-dimethyl-2-(4-methyl-1H-pyrrolo[2,3-b]pyridin-3-yl)ethan-1-amine] | 56.6 | 0.387 | 0.03 | > 10 | 1.04 | > 10
CCN(C)CCc1c[nH]c2nccc(C)c12 [Example P-31, N-ethyl-N-methyl-2-(4-methyl-1H-pyrrolo[2,3-b]pyridin-3-yl)ethan-1-amine] | 54.5 | 1.02 | 1.01 | > 10 | 0.01 | > 10
CCCN(CCC)CCc1c[nH]c2ncc(OC)cc12 [Example P-18, 2-(5-methoxy-1H-pyrrolo[2,3-b]pyridin-3-yl)-N,N-dipropylethan-1-amine] | 89.4 | 0.0855 | 9.35 | > 10 | -0.33 | > 10
CCN(C)CCc1c[nH]c2ncc(F)cc12 [Example P-25, N-ethyl-N-methyl-2-(5-fluoro-1H-pyrrolo[2,3-b]pyridin-3-yl)ethan-1-amine] | 70.3 | 0.109 | 8.23 | > 10 | 21 | > 10
COc1ccnc2[nH]cc(CCN(C(C)C)C(C)C)c12 [Example P-27, N-isopropyl-N-(2-(4-methoxy-1H-pyrrolo[2,3-b]pyridin-3-yl)ethyl)propan-2-amine] | 80.2 | 0.857 | 35.6 | > 10 | 0.54 | > 10
CCCN(CCC)CCc1n[nH]c2cccc(O)c12 [Example P-45, 3-(2-(dipropylamino)ethyl)-1H-indazol-4-ol] | – | 0.16 | – | > 10 | – | > 10
CCN(CC)CCc1n[nH]c2ccc(OC)cc12 [Example P-48, N,N-diethyl-2-(5-methoxy-1H-indazol-3-yl)ethan-1-amine] | – | 6.99 | – | > 10 | – | > 10
Cc1nccc2[nH]cc(CCN(C)C)c12 [Example P-39] | 1.47 | > 10 | – | – | – | –
